Assay results: US9290478B2, “Substituted quinoxalines as FGFR kinase inhibitors” (ASTEX THERAPEUTICS LTD, priority 2010, dated 2016)

Experiments:
Format in all cases: biochemical
FGFR1 (h) = FGFR1 (h) (Homo sapiens, UniProt P11362); assay: FGFR1 (enzymatic assay), TR-FRET; conditions: 5 μM ATP; read-out: FGFR1 pIC50 (converted)
Procedure: (§1) In a final reaction volume of 30 μL, FGFR1 (h) (25 ng/ml) was incubated with 50 mM HEPES pH 7.5, 6 mM MnCl2, 1 mM DTT, 0.1 mM Na3VO4, 0.01% Triton-X-100, 500 nM Btn-Flt3 and 5 μM ATP in the presence of compound (1% DMSO final). After incubation for 60 minutes at room temperature the reaction was stopped with 2.27 nM EU-anti P-Tyr, 7 mM EDTA, 31.25 nM SA-XL-665 and 0.02% BSA which was present for 60 minutes at room temperature. Time-Resolved Fluorescence Resonance Energy Transfer (TR-FRET) signal (ex340 nm. Em 620 nm, em 655 nm) was measured afterwards and results are expressed in RFU (Relative Fluorescence Units). In this assay, the inhibitory effect of different compound concentrations (range 10 μM to 0.1 nM) was determined and used to calculate an IC50 (M) and pIC50 (−log IC50) value.

FGFR4 (h) = FGFR4 (h) (Homo sapiens, UniProt P22455); assay: FGFR4 (enzymatic assay), TR-FRET; conditions: 5 μM ATP; for IC50: read-out: FGFR4 pIC50 (converted)
FGFR4 (h), sequence (P22455 22-802): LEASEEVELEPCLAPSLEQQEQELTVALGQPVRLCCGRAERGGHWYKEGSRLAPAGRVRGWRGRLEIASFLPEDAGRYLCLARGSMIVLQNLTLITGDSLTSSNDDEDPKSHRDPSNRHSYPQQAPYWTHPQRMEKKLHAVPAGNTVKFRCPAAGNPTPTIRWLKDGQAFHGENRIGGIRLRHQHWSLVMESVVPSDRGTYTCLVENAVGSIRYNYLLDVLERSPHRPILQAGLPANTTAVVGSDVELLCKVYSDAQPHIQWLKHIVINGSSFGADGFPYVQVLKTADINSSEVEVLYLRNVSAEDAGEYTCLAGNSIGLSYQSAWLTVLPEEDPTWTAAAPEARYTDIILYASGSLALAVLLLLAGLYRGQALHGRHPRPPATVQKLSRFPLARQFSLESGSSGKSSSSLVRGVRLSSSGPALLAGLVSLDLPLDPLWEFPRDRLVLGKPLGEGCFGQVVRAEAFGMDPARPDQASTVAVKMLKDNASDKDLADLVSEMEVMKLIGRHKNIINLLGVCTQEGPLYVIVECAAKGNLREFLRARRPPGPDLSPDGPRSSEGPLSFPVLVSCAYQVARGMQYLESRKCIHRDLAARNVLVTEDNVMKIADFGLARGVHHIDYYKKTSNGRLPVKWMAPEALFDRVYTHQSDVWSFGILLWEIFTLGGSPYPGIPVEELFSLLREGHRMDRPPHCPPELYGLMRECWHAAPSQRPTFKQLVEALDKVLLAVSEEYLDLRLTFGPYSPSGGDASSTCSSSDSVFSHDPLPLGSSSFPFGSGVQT
Procedure: as §1, with “FGFR4” for “FGFR1”, “(60” for “(25”

KDR (h) (VEGFR2) = KDR (h) (VEGFR2) (Homo sapiens, UniProt P35968); assay: KDR (VEGFR2) (enzymatic assay), TR-FRET; conditions: 3 μM ATP; for IC50: read-out: VEGFR2 (KDR) pIC50 (converted)
KDR (h) (VEGFR2), sequence (P35968 20-1356): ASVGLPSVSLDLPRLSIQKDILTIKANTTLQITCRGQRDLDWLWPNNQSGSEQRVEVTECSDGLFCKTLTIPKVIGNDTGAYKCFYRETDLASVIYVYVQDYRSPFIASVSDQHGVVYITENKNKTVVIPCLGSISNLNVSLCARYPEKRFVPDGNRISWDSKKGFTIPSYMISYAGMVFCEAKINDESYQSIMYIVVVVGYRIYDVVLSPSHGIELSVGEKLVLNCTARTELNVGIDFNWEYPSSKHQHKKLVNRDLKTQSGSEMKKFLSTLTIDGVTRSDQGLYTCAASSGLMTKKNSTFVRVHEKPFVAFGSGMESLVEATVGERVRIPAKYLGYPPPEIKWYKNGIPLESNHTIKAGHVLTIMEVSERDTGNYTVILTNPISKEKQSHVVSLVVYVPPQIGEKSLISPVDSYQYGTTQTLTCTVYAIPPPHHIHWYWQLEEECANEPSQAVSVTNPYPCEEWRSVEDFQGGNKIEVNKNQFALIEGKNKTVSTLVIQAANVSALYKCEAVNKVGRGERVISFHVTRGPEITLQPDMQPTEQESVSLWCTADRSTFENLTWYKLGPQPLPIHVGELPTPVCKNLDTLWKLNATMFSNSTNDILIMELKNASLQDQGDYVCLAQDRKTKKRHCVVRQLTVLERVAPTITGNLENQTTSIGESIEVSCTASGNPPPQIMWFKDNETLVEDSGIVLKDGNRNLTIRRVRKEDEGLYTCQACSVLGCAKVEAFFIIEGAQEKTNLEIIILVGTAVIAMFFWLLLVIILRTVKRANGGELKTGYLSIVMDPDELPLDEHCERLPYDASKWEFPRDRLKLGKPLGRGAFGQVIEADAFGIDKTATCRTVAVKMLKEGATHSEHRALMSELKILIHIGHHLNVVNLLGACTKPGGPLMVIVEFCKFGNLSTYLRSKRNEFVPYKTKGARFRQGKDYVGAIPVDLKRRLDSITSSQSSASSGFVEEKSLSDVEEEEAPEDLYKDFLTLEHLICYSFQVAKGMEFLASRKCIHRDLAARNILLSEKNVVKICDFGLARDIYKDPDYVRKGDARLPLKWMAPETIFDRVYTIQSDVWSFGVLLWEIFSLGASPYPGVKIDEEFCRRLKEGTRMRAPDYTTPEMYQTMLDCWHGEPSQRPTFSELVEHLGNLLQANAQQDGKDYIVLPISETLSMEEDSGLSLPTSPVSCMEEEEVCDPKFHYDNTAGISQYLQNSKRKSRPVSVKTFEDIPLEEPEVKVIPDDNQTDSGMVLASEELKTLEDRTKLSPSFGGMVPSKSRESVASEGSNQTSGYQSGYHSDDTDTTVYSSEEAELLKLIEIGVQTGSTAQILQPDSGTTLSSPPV
Procedure: KDR (VEGFR2) (Enzymatic Assay)
as §1, with “30 μL, KDR (h) (150” for “30 μL, FGFR1 (h) (25”, “KDR (h) (150 ng/ml) was” for “FGFR1 (h) (25 ng/ml) was”, “Btn-Flt3 and 3 μM ATP” for “Btn-Flt3 and 5 μM ATP”, “incubation for 120 minutes at” for “incubation for 60 minutes at”

FGFR2 (h) = FGFR2 (h) (Homo sapiens, UniProt P21802); assay: FGFR2 (enzymatic assay), TR-FRET; conditions: 0.4 μM ATP; read-out: FGFR2 pIC50 (converted)
FGFR2 (h), sequence (P21802 22-821): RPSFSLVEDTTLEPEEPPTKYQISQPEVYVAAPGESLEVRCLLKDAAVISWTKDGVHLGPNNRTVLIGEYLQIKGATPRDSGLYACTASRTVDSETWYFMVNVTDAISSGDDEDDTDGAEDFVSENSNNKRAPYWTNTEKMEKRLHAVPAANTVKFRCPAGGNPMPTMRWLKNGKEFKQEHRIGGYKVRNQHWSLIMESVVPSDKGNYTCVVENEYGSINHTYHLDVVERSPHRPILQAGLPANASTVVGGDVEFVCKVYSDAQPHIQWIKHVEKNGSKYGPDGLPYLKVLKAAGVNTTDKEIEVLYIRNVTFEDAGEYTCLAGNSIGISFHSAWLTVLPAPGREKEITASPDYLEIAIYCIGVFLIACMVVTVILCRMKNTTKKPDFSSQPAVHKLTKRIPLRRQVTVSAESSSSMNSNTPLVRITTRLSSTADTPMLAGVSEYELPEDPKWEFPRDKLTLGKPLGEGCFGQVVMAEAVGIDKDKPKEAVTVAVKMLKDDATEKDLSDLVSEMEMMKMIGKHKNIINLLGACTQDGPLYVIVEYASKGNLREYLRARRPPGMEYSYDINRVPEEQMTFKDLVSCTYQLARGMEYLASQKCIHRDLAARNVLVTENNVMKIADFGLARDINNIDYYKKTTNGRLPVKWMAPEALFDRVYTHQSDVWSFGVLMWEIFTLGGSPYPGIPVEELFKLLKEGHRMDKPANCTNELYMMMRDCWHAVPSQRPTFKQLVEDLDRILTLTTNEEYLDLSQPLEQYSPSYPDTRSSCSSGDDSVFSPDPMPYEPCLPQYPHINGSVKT
Procedure: as §1, with “μL, FGFR2” for “μL, FGFR1”, “(h) (150” for “(h) (25”, “and 0.4” for “and 5”, “in” for “in RFU”

FGFR1 (h), sequence (P11362 22-822): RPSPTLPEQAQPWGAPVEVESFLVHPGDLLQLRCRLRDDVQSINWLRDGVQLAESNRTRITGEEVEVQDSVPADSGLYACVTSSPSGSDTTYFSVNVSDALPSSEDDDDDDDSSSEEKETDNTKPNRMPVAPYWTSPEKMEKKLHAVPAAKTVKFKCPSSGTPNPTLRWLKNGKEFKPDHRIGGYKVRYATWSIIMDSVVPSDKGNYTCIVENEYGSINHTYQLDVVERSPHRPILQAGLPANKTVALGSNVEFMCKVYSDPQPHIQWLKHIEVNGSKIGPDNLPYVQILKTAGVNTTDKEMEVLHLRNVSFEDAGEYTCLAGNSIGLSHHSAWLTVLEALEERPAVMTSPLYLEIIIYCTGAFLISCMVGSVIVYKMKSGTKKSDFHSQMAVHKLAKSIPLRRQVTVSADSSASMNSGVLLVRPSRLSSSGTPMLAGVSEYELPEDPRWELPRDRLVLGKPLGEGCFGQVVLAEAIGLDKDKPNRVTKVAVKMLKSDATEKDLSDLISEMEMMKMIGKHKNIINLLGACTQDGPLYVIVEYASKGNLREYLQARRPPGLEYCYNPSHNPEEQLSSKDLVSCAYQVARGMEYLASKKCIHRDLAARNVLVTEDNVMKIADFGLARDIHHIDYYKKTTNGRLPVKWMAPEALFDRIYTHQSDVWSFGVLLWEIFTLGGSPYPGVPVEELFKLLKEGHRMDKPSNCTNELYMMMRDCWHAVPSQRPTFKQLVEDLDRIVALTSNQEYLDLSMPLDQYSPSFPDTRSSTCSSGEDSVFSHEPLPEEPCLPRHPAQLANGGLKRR

SMILES	IC50 (FGFR1 (h)) [µM]	IC50 (FGFR4 (h)) [µM]	IC50 (KDR (h) (VEGFR2)) [µM]	IC50 (FGFR2 (h)) [µM]	FGFR4 pIC50 (FGFR4 (h))	VEGFR2 (KDR) pIC50 (KDR (h) (VEGFR2))
COc1cc(OC)cc(C(O)(CNCCNC(C)C)c2ccc3ncc(-c4cnn(C)c4)nc3c2)c1 (single isomer, unassigned) [Compound 5]	0.603	> 1	> 1	~0.741		
COc1cc(OC)cc(C(O)(CNCCNC(C)C)c2ccc3ncc(-c4cnn(C)c4)nc3c2)c1 (single isomer, unassigned) [Compound 6]	0.955			0.813		
COc1cc(OC)cc(C(CCNC(C)C)c2ccc3ncc(-c4cnn(C)c4)nc3c2)c1 (single isomer, unassigned) [Compound 19a]	0.00759	0.145	> 1	0.0178		
COc1cc(OC)cc(C(NCCNC(C)C)c2ccc3ncc(-c4cnn(C)c4)nc3c2)c1.Cl (single isomer, unassigned) [Compound 24]	0.182	> 1	> 1	0.324		
COc1cc(OC)cc(C(CCNC(C)C)c2ccc3ncc(-c4cnn(C)c4)nc3c2)c1 (single isomer, unassigned) [Compound 32a]	0.661	5.5	> 10	0.851		
CNCC(O)(c1cc(OC)cc(OC)c1)c1ccc2ncc(-c3cnn(C)c3)nc2c1.Cl (single isomer, unassigned) [Compound 37]	~0.891	> 1	> 1	0.589		
CNCC(O)(c1cc(OC)cc(OC)c1)c1ccc2ncc(-c3cnn(C)c3)nc2c1.Cl (single isomer, unassigned) [Compound 38]	0.776			> 1	<6	<6
COc1cc(OC)cc(C(NCCNC(C)C)c2ccc3ncc(-c4cnn(C)c4)nc3c2)c1.Cl (single isomer, unassigned) [Compound 39]	> 1			> 1	<6	<6
COc1cc(OC)cc(C(=O)c2ccc3ncc(-c4cnn(C)c4)nc3c2)c1 [Compound 2]	0.117	~10	0.708	0.209		
COc1cc(OC)cc(/C(=C/C#N)c2ccc3ncc(-c4cnn(C)c4)nc3c2)c1 [Compound 3]	2.29	> 10	3.98	5.13		
COc1cc(OC)cc(/C(=C\C#N)c2ccc3ncc(-c4cnn(C)c4)nc3c2)c1 [Compound 4]	0.0537	0.363	0.661	0.102		
COc1cc(OC)cc(C(CCN2CCCC2=O)c2ccc3ncc(-c4cnn(C)c4)nc3c2)c1.Cl (stereo not drawn) [Compound 7]	0.0562	0.158	0.347	0.038		
COc1cc(OC)cc(/C(=C\CNC(C)C)c2ccc3ncc(-c4cnn(C)c4)nc3c2)c1 [Compound 8, {(Z)-3-(3,5-Dimethoxy-phenyl)-3-[3-(1-methyl-1H-pyrazol-4-yl)-quinoxalin-6-yl]-allyl}-isopropyl-amine]	0.00776	0.126	0.389	0.0107		
COc1cc(OC)cc(/C(=C/CNC(C)C)c2ccc3ncc(-c4cnn(C)c4)nc3c2)c1 [Compound 9]	0.0603	1.48	4.47	0.0871		
COc1cc(OC)cc(/C(=C\CN(C)C)c2ccc3ncc(-c4cnn(C)c4)nc3c2)c1 [Compound 10, {(Z)-3-(3,5-Dimethoxy-phenyl)-3-[3-(1-methyl-1H-pyrazol-4-yl)-quinoxalin-6-yl]-allyl}-dimethyl-amine]	0.017	0.107	> 1	0.0158		
COc1cc(OC)cc(/C(=C\CNCC(F)(F)F)c2ccc3ncc(-c4cnn(C)c4)nc3c2)c1 [Compound 14, {(Z)-3-(3,5-Dimethoxy-phenyl)-3-[3-(1-methyl-1H-pyrazol-4-yl)-quinoxalin-6-yl]-allyl}-(2,2,2-trifluoro-ethyl)-amine]	0.0138	0.0288	0.245	0.0129		
COc1cc(OC)cc(C(CC#N)c2ccc3ncc(-c4cnn(C)c4)nc3c2)c1 (stereo not drawn) [Compound 18]	0.0724	0.182	> 1	0.145		
COc1cc(OC)cc(C(CCN)c2ccc3ncc(-c4cnn(C)c4)nc3c2)c1.Cl (stereo not drawn) [Compound 20]	0.0776	0.447	4.68	0.0676		
COc1cc(OC)cc(C(CCN(C)C)c2ccc3ncc(-c4cnn(C)c4)nc3c2)c1.Cl (stereo not drawn) [Compound 21]	0.0372	0.355	> 1	0.0676		
COc1cc(OC)cc(C(CCO)c2ccc3ncc(-c4cnn(C)c4)nc3c2)c1 (stereo not drawn) [Compound 22]	0.107	0.513	> 1	0.126		
COc1cc(OC)cc(C(CC(=O)NC(C)C)c2ccc3ncc(-c4cnn(C)c4)nc3c2)c1 (stereo not drawn) [Compound 23]	> 1	> 1	> 1	> 1		
COc1cc(OC)cc(C(CC(C)(O)CNC(C)C)c2ccc3ncc(-c4cnn(C)c4)nc3c2)c1.Cl (stereo not drawn) [Compound 25]	0.794	> 1	0.562	~1		
Cn1cc(-c2cnc3ccc(C(O)c4ccccc4)cc3n2)cn1 (stereo not drawn) [Compound 28]	~1.51	8.51	1.58	2.63		
COc1cc(OC)cc(C(CCNC(C)C)c2ccc3ncc(-c4cnn(C)c4)nc3c2)c1.Cl (stereo not drawn) [Compound 29, {3-(3,5-Dimethoxy-phenyl)-3-[3-(1-methyl-1H-pyrazol-4-yl)-quinoxalin-6-yl]-propyl}-isopropyl-amine]	0.0229	0.275	> 1	0.0257		
COc1cc(OC)cc(C2(c3ccc4ncc(-c5cnn(C)c5)nc4c3)CC2)c1 [Compound 30]	0.0912	0.479	0.501	0.0501		
COc1cc(OC)cc(C(CCNCC(F)(F)F)c2ccc3ncc(-c4cnn(C)c4)nc3c2)c1.Cl (stereo not drawn) [Compound 33]	0.224	~1	> 1	0.38		
COc1cc(OC)cc(/C(=C/CN(C)C)c2ccc3ncc(-c4cnn(C)c4)nc3c2)c1 [Compound 34]	0.132	> 1	> 1	0.17		
CN(C)CCC(c1ccccc1)c1ccc2ncc(-c3cnn(C)c3)nc2c1 (stereo not drawn) [Compound 35]	> 1	> 1	> 1	> 1		
COc1cc(OC)cc(C(CCCN)c2ccc3ncc(-c4cnn(C)c4)nc3c2)c1.Cl (stereo not drawn) [Compound 40]	0.49	> 1	> 1	0.427		
